Laboratory results reported in US11655235B2, “Pyrrolidine and piperidine compounds” (YUHAN CORPORATION, priority 2019, dated 2023).

Legend:
Format in all cases: biochemical
[1] = target: T1, recombinant human PREP (Homo sapiens, UniProt P48147); experiment: PREP inhibition, fluorogenic substrate Z-Gly-Pro-AMC; settings: Inhibitory Activity (IC50, nM) PREP, recombinant human PREP
T1 construct: purchased R&D System
T1 sequence (P48147 1-710): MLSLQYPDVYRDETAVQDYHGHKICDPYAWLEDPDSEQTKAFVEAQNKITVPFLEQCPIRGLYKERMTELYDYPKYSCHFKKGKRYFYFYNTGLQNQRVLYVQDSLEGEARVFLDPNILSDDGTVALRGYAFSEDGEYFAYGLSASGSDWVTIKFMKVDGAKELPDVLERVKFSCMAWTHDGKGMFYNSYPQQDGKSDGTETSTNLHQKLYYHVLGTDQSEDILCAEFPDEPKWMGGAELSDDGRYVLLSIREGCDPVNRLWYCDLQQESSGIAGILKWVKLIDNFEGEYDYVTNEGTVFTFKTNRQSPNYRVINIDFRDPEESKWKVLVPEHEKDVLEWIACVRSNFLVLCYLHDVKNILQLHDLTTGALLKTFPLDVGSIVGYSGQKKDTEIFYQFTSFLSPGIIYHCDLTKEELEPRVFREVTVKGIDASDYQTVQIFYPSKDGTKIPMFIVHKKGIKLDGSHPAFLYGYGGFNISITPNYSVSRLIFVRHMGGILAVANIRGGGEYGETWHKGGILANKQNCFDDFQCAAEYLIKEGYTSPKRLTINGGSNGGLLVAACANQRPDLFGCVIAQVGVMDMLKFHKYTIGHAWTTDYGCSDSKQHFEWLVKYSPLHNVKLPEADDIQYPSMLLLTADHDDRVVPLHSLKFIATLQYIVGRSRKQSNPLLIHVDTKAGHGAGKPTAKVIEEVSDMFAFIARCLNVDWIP
Procedure: The compounds according to the present technology were evaluated in terms of the inhibitory effect on the activity of dipeptidyl peptidases including FAP by using a substrate producing fluorescent substances upon enzymatic decomposition. The test was conducted at 25° C. to get a final reaction volume of 100 μL in a 96 black well plate. […] Briefly, the test compounds were dissolved in dimethyl sulfoxide (DMSO) at a concentration of 20 mM and then subjected to serial dilution, thereby creating an 8 point curve. As for the control group, a 6 point curve created by serial dilution of Talabostat in the same buffer solution was used. Fluorescence intensity was measured using a microplate reader (Flexstation3, Molecular Devices) under the wavelength condition exciting at 380 nm and reading the emission at 460 nm. The inhibitory effect of the test compounds was measured as a decrease (%) in the signal rate as compared to the control group without any inhibitor. Data was fixed to a logistic model with four variables and IC50 value was calculated using GraphPad Prism program. As for recombinant human DPP4 (R&D Systems), 25 mM tris (pH 8.0) buffer as a buffer solution and H-Gly-Pro-AMC (Bachem) as a substrate were used. As for recombinant human DPP7 (R&D Systems), 25 mM MES (pH 6.0) buffer as a buffer solution and Lys-Pro-AMC (Bachem) as a substrate were used. As for recombinant human DPP8 (PBS Bioscience), as a buffer solution, a 10 mM tris (pH 7.4) buffer comprising 10 mM of magnesium chloride and 0.05% of Tween 20, and Z-Ala-Pro-AMC (BPS Bioscience) as a substrate were used. As for recombinant human DPP9 (R&D Systems), a 25 mM tris (pH 8.0) buffer as a buffer solution and H-Gly-Pro-AMC (Bachem) as a substrate were used. As for recombinant human PREP (R&D System), as a buffer solution, a 25 mM tris (pH 7.5) buffer comprising 250 mM sodium chloride and 2.5 mM DTT (Dithiolthreitol), and Z-Gly-Pro-AMC (Bachem) as a substrate were used. The evaluation was made by using 10 ng of DPP4, PDD7, and PREP, 20 ng of DPP8, and 50 ng of DPP9 based on the final reaction. In the evaluation of DPP4, the test compounds were subjected to serial dilution in a buffer under the condition containing up to 0.1% of DMSO. In the evaluation of DPP7, DPP8, DPP9, and PREP, the test compounds were subjected to serial dilution in each buffer under the condition containing up to 0.5% of DMSO.

[2] = target: T2, recombinant human DPP7 (Homo sapiens, UniProt Q9UHL4); experiment: DPP7 inhibition, fluorogenic substrate Lys-Pro-AMC; settings: recombinant human DPP7
T2 construct: purchased R&D Systems
Procedure, shortened: (§1)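 Enzyme per reaction: 50 ng DPP9, 20 ng DPP8, 10 ng each DPP7 and PREP. Compounds were serially diluted (8 points, up to 0.5% DMSO) and incubated at 25 °C.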

[3] = target: DPP4 (Homo sapiens, UniProt P27487); experiment: DPP4 inhibition, fluorogenic substrate H-Gly-Pro-AMC; design: purchased R&D Systems; settings: recombinant human DPP4
Chain of DPP4 (P27487 whole entry): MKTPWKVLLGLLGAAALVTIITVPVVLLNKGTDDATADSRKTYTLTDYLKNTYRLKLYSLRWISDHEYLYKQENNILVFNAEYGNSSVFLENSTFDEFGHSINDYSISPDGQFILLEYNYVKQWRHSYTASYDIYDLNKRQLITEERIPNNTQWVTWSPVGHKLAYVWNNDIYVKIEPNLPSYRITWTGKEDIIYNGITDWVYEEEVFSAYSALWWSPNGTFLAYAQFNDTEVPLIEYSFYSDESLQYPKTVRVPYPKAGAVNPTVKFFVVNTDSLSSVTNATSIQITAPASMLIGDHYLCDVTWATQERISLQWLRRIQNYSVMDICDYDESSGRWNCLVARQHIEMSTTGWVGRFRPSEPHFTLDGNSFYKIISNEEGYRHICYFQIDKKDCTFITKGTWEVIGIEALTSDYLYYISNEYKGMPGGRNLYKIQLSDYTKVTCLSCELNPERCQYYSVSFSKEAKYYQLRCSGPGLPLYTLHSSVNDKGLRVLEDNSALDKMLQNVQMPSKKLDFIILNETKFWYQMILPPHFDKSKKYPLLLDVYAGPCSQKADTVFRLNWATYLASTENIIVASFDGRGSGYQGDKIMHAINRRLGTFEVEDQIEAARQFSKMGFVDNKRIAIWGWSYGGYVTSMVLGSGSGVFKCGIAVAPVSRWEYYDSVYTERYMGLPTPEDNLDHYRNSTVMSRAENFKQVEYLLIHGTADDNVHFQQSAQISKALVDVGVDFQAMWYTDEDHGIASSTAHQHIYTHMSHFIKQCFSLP

[4] = target: T3, Recombinant human FAP (Homo sapiens, UniProt Q12884); experiment: FAP FRET assay, FGF21-sequence FRET peptide substrate; settings: FRET peptide with human FGF21 sequence, 6 μM, 37° C.
T3 construct: purchased R&D systems
T3 sequence (Q12884 1-760): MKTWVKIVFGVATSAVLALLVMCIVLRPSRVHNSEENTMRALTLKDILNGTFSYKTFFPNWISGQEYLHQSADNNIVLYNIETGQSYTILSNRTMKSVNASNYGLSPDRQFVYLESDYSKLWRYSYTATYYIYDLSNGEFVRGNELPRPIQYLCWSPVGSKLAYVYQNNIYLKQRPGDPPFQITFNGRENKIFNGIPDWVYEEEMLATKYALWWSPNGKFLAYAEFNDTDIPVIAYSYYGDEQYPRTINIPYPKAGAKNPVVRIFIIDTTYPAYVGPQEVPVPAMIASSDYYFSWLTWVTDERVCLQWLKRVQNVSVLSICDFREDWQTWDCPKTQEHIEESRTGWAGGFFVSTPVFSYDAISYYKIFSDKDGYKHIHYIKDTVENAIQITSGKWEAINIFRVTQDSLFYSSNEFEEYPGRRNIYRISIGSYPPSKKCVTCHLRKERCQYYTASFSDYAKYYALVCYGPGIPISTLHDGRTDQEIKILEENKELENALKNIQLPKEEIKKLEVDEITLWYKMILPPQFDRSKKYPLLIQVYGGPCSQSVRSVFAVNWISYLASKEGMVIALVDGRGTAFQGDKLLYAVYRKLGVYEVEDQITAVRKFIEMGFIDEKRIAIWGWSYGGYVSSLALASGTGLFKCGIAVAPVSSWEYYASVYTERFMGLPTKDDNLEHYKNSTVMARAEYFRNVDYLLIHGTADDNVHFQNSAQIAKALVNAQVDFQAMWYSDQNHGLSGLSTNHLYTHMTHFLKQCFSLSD
Procedure, shortened: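 Recombinant human FAP, 10 ng per reaction, in 50 mM HEPES pH 7.2 with 150 mM NaCl, 0.1 mg/ml BSA, 1 mM EDTA; HyLite Fluor 488/QXL 520 FRET peptide of human FGF21 sequence at 6 μM final, ≤0.1% DMSO, 37° C. IC50 from 8-point curves by four-parameter logistic fit.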

[5] = target: T4, recombinant human DPP9 (Homo sapiens, UniProt Q86TI2); experiment: DPP9 inhibition, fluorogenic substrate H-Gly-Pro-AMC; settings: recombinant human DPP9
T4 construct: purchased R&D Systems
T4 sequence (Q86TI2 whole entry): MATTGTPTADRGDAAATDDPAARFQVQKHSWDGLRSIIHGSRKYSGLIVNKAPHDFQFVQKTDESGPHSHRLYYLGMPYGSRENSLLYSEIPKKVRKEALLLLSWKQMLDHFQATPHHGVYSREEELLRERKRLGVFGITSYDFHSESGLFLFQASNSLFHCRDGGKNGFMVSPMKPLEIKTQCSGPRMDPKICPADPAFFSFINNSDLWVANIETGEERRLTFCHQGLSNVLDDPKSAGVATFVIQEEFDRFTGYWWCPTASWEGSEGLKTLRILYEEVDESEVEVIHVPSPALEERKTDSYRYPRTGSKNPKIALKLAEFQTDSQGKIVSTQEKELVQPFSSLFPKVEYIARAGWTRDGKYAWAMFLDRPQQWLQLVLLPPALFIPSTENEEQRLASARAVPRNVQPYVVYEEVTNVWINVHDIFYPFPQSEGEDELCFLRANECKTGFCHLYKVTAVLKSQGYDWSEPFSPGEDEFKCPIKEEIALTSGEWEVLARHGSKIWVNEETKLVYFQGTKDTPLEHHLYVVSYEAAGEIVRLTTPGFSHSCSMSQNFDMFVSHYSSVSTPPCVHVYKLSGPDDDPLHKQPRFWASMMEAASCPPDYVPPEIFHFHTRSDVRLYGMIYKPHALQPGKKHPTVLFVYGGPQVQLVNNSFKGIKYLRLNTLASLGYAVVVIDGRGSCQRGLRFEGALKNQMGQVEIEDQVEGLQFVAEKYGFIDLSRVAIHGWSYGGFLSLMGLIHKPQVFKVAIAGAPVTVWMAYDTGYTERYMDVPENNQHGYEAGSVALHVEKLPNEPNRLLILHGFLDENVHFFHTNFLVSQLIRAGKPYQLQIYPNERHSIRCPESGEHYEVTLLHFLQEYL
Procedure, shortened: as §1

| IC50 [1] [nM] | IC50 [2] [nM] | IC50 [3] [nM] | IC50 [4] [nM] | IC50 [5] [nM] | Structure (SMILES) |
| --- | --- | --- | --- | --- | --- |
| 1250 | 63.7 | 12500 | 16.7 | 1390 | Cc1cccc2c(N[C@@H]3CCN(CC(=O)N4C[C@@H](F)C[C@H]4C#N)C3)ccnc12 [Example 190, (2S,4S)-4-fluoro-1-[2-[(3R)-3-[(8-methyl-4-quinolyl)amino]pyrrolidin-1-yl]acetyl]pyrrolidine-2-carbonitrile] |
| 14700 | 4120 | 13400 | 5.2 | 23800 | N#C[C@@H]1CCCN1C(=O)CN1CC[C@@H](Nc2cc(F)cc3ncccc23)C1 [Example 197, (2S)-1-[2-[(3R)-3-[(7-fluoro-5-quinolyl)amino]pyrrolidin-1-yl]acetyl]pyrrolidine-2-carbonitrile] |
| 2920 | 901 | 9460 | 8.6 | 14900 | COc1cc(N[C@@H]2CCN(CC(=O)N3CCC[C@H]3C#N)C2)c2cccnc2c1 [Example 198, (2S)-1-[2-[(3R)-3-[(7-methoxy-5-quinolyl)amino]pyrrolidin-1-yl]acetyl]pyrrolidine-2-carbonitrile] |
| 6090 | 1700 | 5510 | 6.3 | 27300 | Cc1ccc(N[C@@H]2CCN(CC(=O)N3CCC[C@H]3C#N)C2)c2cccnc12 [Example 200, (2S)-1-[2-[(3R)-3-[(8-methyl-5-quinolyl)amino]pyrrolidin-1-yl]acetyl]pyrrolidine-2-carbonitrile] |
| 12200 | 3260 | 4660 | 0.9 | 11200 | N#C[C@@H]1CCCN1C(=O)CN1CC[C@@H](Nc2cccc3ncc(Cl)cc23)C1 [Example 203, (2S)-1-[2-[(3R)-3-[(3-chloro-5-quinolyl)amino]pyrrolidin-1-yl]acetyl]pyrrolidine-2-carbonitrile] |
| 11500 | 3870 | 6200 | 2.1 | 16200 | COc1cnc2cccc(N[C@@H]3CCN(CC(=O)N4CCC[C@H]4C#N)C3)c2c1 [Example 204, (2S)-1-[2-[(3R)-3-[(3-methoxy-5-quinolyl)amino]pyrrolidin-1-yl]acetyl]pyrrolidine-2-carbonitrile] |
| 7500 | 1760 | 796 | 2.6 | 3040 | COc1cnc2cccc(N[C@@H]3CCN(CC(=O)N4C[C@@H](F)C[C@H]4C#N)C3)c2c1 [Example 205, (2S,4S)-4-fluoro-1-[2-[(3R)-3-[(3-methoxy-5-quinolyl)amino]pyrrolidin-1-yl]acetyl]pyrrolidine-2-carbonitrile] |
| 12000 | 1370 | 6510 | 1.7 | 19200 | Cc1cnc2cccc(N[C@@H]3CCN(CC(=O)N4CCC[C@H]4C#N)C3)c2c1 [Example 208, (2S)-1-[2-[(3R)-3-[(3-methyl-5-quinolyl)amino]pyrrolidin-1-yl]acetyl]pyrrolidine-2-carbonitrile] |
| 1480 | 281 | 2700 | 3.5 | 1300 | N#C[C@@H]1C[C@H](F)CN1C(=O)CN1CC[C@@H](Nc2ccc3nc(C(F)(F)F)ccc3c2)C1 [Example 210, (2S,4S)-4-fluoro-1-[2-[(3R)-3-[[2-(trifluoromethyl)-6-quinolyl]amino]pyrrolidin-1-yl]acetyl]pyrrolidine-2-carbonitrile] |
| 2740 | 369 | 1800 | 5.2 | 657 | Cc1cnc2ccc(N[C@@H]3CCN(CC(=O)N4C[C@@H](F)C[C@H]4C#N)C3)cc2c1 [Example 211, (2S,4S)-4-fluoro-1-[2-[(3R)-3-[(3-methyl-6-quinolyl)amino]pyrrolidin-1-yl]acetyl]pyrrolidine-2-carbonitrile] |
| 5230 | 206 | 1960 | 8 | 1160 | COc1ccnc2ccc(N[C@@H]3CCN(CC(=O)N4C[C@@H](F)C[C@H]4C#N)C3)cc12 [Example 212, (2S,4S)-4-fluoro-1-[2-[(3R)-3-[(4-methoxy-6-quinolyl)amino]pyrrolidin-1-yl]acetyl]pyrrolidine-2-carbonitrile] |
| 3020 | 393 | 1740 | 3.5 | 1390 | Cc1cc(N[C@@H]2CCN(CC(=O)N3C[C@@H](F)C[C@H]3C#N)C2)cc2cccnc12 [Example 213, (2S,4S)-4-fluoro-1-[2-[(3R)-3-[(8-methyl-6-quinolyl)amino]pyrrolidin-1-yl]acetyl]pyrrolidine-2-carbonitrile] |
| 3030 | 764 | 1290 | 3.8 | 970 | N#C[C@@H]1C[C@H](F)CN1C(=O)CN1CC[C@@H](Nc2cc(F)c3ncccc3c2)C1 [Example 214, (2S,4S)-4-fluoro-1-[2-[(3R)-3-[(8-fluoro-6-quinolyl)amino]pyrrolidin-1-yl]acetyl]pyrrolidine-2-carbonitrile] |
